Measured values as given in patent EP4775580A1, “COMPOUND, PHARMACEUTICAL COMPOSITION COMPRISING SAME, AND USE THEREOF” (Euregen Biopharma Co., Ltd., priority 2023, dated 2025).

Columns and labels:
[1] = Pharmacokinetics in mice after single IV and PO administration (LC-MS/MS); assay type: in vivo, male ICR mice; conditions: ICR mice
Experimental: • 1. Objective: This study aimed to characterize the pharmacokinetic properties of selected compounds from the examples of the present invention in male ICR mice following single intravenous (IV) injection and oral (PO) administration using LC-MS/MS methodology. • 2. Experimental Materials: Test compounds were prepared according to the examples of the present invention; male ICR mice were obtained from Shanghai Jihui Laboratory Animal Breeding Co., Ltd. (License No. SCXK(Shanghai)2022-0009). • 3. Experimental Methods: Preparation of 0.5% methylcellulose (pH = 4.91): 5 g of methylcellulose was weighed and dissolved in 1000 mL of purified water, and the pH was adjusted to 4.91 with 100 mM citric acid.
Preparation of oral formulations: The required amount of test compound was weighed and dissolved in 0.5% methylcellulose (pH = 4.91) solution to obtain a suspension or solution at 3 mg/mL.
Preparation of intravenous injection formulations: The required amount of test compound was weighed and dissolved in 0.5 mL dimethyl sulfoxide to prepare a 12 mg/mL solution. To 0.25 mL of this solution, 0.5 mL of polyethylene glycol 15-hydroxystearate (Solutol) and 4.25 mL of normal saline were added to obtain a 0.6 mg/mL solution.
Dosing: Male ICR mice were fasted overnight prior to oral (PO) administration; fasting was not required for the single intravenous (IV) injection group. Food was provided 4 hours post-dosing.
Sample Collection: Blood was collected from the jugular vein or other suitable veins, with 0.03 mL collected at each time point. Samples were placed in tubes containing dipotassium ethylenediaminetetraacetate and kept on ice prior to centrifugation. Within 1 hour of blood collection, samples were centrifuged at 6800 × g for 6 minutes at 2-8°C and stored at -80°C. Blood sampling time points for intravenous administration were 0.083, 0.25, 0.5, 1, 2, 4, 8, 24, and 32 hours post-dosing. Blood sampling time points for oral administration were 0.25, 0.5, 1, 2, 4, 8, 24, and 32 hours post-dosing.

[2] = Pharmacokinetics in rats after single IV and PO administration (LC-MS/MS); assay type: in vivo, male SD rats; conditions: SD rats
Experimental: • 1. Objective: This study aimed to characterize the pharmacokinetic properties of selected compounds from the examples of the present invention in SD rats following single intravenous (IV) injection and oral (PO) administration using LC-MS/MS methodology. • 2. Experimental Materials: Test compounds were prepared according to the examples of the present invention; male SD rats were obtained from the Laboratory Animal Department of Shanghai Institute of Planned Parenthood Research (License No. SCXK(Shanghai)2018-0006) or Shanghai Jihui Laboratory Animal Breeding Co., Ltd. (License No. SCXK(Shanghai)2022-0009). • 3. Experimental Methods: Preparation of 0.5% methylcellulose: 5 g of methylcellulose was weighed and dissolved in 1000 mL of purified water. Preparation of 0.5% methylcellulose (pH = 5.03): 5 g of methylcellulose was weighed and dissolved in 1000 mL of purified water, and the pH was adjusted to 5.03 with 100 mM citric acid.
Preparation of oral formulations: The required amount of test compound was weighed and dissolved in 0.5% methylcellulose solution or 0.5% methylcellulose (pH = 5.03) to obtain a suspension or solution at 1 or 3 mg/mL.
Preparation of intravenous injection formulations: The required amount of test compound (EB229, EB300, EB341, EB342) was weighed and dissolved in 0.5 mL dimethyl sulfoxide to prepare a 4 mg/mL solution. To 0.25 mL of this solution, 0.5 mL of polyethylene glycol 15-hydroxystearate (Solutol) and 4.25 mL of normal saline were added to obtain a 0.2 mg/mL solution. For EB834, 6 mg was weighed and dissolved in 0.1 mL dimethyl sulfoxide, followed by addition of 0.2 mL polyethylene glycol 15-hydroxystearate (Solutol) and 1.7 mL normal saline to obtain a 3 mg/mL solution.
Dosing: Male SD rats were fasted overnight prior to oral (PO) administration; fasting was not required for the single intravenous (IV) injection group. Food was provided 4 hours post-dosing.
Sample Collection: Blood was collected from the jugular vein or other suitable veins, with 0.2 mL collected at each time point. Samples were placed in tubes containing dipotassium ethylenediaminetetraacetate and kept on ice prior to centrifugation. Within 1 hour of blood collection, samples were centrifuged at 6800 × g for 6 minutes at 2-8°C and stored at -80°C.

In the case of CCN(C(=O)c1cc(F)ccc1N1CCN([C@@H]2CCN([C@H](CCCN(C)CCOC)C(C)C)C2)c2ncncc21)C(C)C [Example 3], the “PO F” value ([1]; PO 30 mg/kg vs IV 3 mg/kg) is reported as 25.6%, the AUC(0-t) ([1]; mouse, in vivo, IV 3 mg/kg, read-out: IV AUC(0-t)) is reported as 429 ng·h/mL and the clearance ([1]; mouse, in vivo, IV 3 mg/kg, read-out: IV CL) is reported as 104 mL/min/kg. The Cmax ([1]; mouse, in vivo, IV 3 mg/kg, read-out: IV Cmax) was 418 ng/mL, the Vd ([1]; mouse, in vivo, IV 3 mg/kg, read-out: IV Vss) was 65.1 L/kg and the half-life ([1]; mouse, in vivo, IV 3 mg/kg, read-out: IV t1/2 (converted)) was 10.9 h. The AUC(0-t) ([1]; mouse, in vivo, PO 30 mg/kg, 0.5% methylcellulose (pH = 4.91), read-out: PO AUC(0-t)) was 1100 ng·h/mL, the Cmax ([1]; mouse, in vivo, PO 30 mg/kg, 0.5% methylcellulose (pH = 4.91), read-out: PO Cmax) was 293 ng/mL and the half-life ([1]; mouse, in vivo, PO 30 mg/kg, 0.5% methylcellulose (pH = 4.91), read-out: PO t1/2 (converted)) was 6.49 h. For the same molecule, the “PO F” value ([2]; PO 30 mg/kg vs IV 3 mg/kg) was 172%, the AUC(0-t) ([2]; rat, in vivo, IV 3 mg/kg, read-out: IV AUC(0-t)) was 494 ng·h/mL and the clearance ([2]; rat, in vivo, IV 3 mg/kg, read-out: IV CL) was 59.2 mL/min/kg. For the same molecule, the Cmax ([2]; rat, in vivo, IV 3 mg/kg, read-out: IV Cmax) was 193 ng/mL, the Vd ([2]; rat, in vivo, IV 3 mg/kg, read-out: IV Vss) was 203 L/kg and the half-life ([2]; rat, in vivo, IV 3 mg/kg, read-out: IV t1/2 (converted)) was 52.9 h. The AUC(0-t) ([2]; rat, in vivo, PO 30 mg/kg, 0.5% MC (pH 5.03), read-out: PO AUC(0-t)) was 8500 ng·h/mL, the Cmax ([2]; rat, in vivo, PO 30 mg/kg, 0.5% MC (pH 5.03), read-out: PO Cmax) was 1140 ng/mL and the half-life ([2]; rat, in vivo, PO 30 mg/kg, 0.5% MC (pH 5.03), read-out: PO t1/2 (converted)) was 21.3 h.
